In PMC7156458, “Synthetic biology based construction of biological activity-related library of fungal decalin-containing diterpenoid pyrones” (Nature Communications, 2020):

Experiments:
Experiment in all cases: cells
Design in all cases: species or system JFCR39 human cancer cell lines; JFCR39 panel growth inhibition, sulforhodamine B total protein after 48 h
[1] = system: RXF-631L; conditions: RXF-631L, 48 h
Experimental: (§1) Supplementary Note 24. Antiproliferative effects across the panel of JFCR39 cancer cell lines A panel of 39 human cancer cell lines, termed JFCR39, were previously described13-16. Cells were grown in RPMI-1640 (FUJIFILM Wako Pure Chemical Corporation, Tokyo, Japan) supplemented with 1 µg mL-1 kanamycin and 5% (v/v) fetal bovine serum (Nichirei Biosciences Inc, Tokyo, Japan) and incubated at 37°C in a humidified atmosphere supplemented with 5% CO2. Drug efficacy was assessed as changes in total cellular protein after 48 hours of drug treatment using a sulforhodamine B assay. Assays were done in duplicate and the GI50 was calculated as described previously13,16. The antitumor profile across the JFCR39 panel, or fingerprints were then compared to reference database containing ~2000 compounds by COMPARE algorithm16,17. Initially, we evaluated new DDP analogues for their antiproliferative activities across the panel of 39 human cancer cell lines, JFCR39[50],[51].

[2] = system: SF-268; conditions: Homo sapiens, SF-268, 48 h
Experimental: as §1

[3] = system: OVCAR-5; conditions: Homo sapiens, OVCAR-5, 48 h
Experimental: as §1

[4] = system: MKN45; conditions: Homo sapiens, MKN-45, 48 h
Experimental: as §1

[5] = system: NCI-H23; conditions: Homo sapiens, NCI-H23, 48 h
Experimental: as §1

[6] = system: HBC-5; conditions: HBC5, 48 h
Experimental: as §1

[7] = system: OVCAR-4; conditions: Homo sapiens, OVCAR-4, 48 h
Experimental: as §1

[8] = system: SK-OV-3; conditions: Homo sapiens, SK-OV-3, 48 h
Experimental: as §1

[9] = system: HCC2998; conditions: Homo sapiens, HCC 2998, 48 h
Experimental: as §1

[10] = system: HCT-15; conditions: Homo sapiens, HCT-15, 48 h
Experimental: as §1

[11] = system: MKN74; conditions: Homo sapiens, MKN-74, 48 h
Experimental: as §1

[12] = system: HBC-4; conditions: HBC4, 48 h
Experimental: as §1

[13] = system: LOX-IMVI; conditions: Homo sapiens, LOX IMVI, 48 h
Experimental: as §1

[14] = system: MKN-B; conditions: 48 h
Experimental: as §1

[15] = system: MDA-MB-231; conditions: Homo sapiens, MDA-MB-231, 48 h
Experimental: as §1

[16] = system: U251; conditions: Homo sapiens, U-251, 48 h
Experimental: as §1

[17] = system: St-4; conditions: Homo sapiens, St-4, 48 h
Experimental: as §1

[18] = system: BSY-1; conditions: BSY-1, 48 h
Experimental: as §1

[19] = system: HT-29; conditions: Homo sapiens, HT-29, 48 h
Experimental: as §1

[20] = system: SNB-78; conditions: Homo sapiens, SNB-78, 48 h
Experimental: as §1

[21] = system: SNB-75; conditions: Homo sapiens, SNB-75, 48 h
Experimental: as §1

Question: `C=C1CCC2C(C)(CCC=C(C)C)C(O)CCC2(C)C1Cc1c(OC)oc(C)c(C(=O)OC)c1=O` (stereo not drawn) [Compound 14] was tested. Which GI50 [1] did it give?
Answer: The GI50 was 14.5 µM.

Question: What about the GI50 [2] of the same compound?
Answer: The GI50 was 12.8 µM.

Question: And the GI50 [3]?
Answer: Its GI50 is 18.6 µM.

Question: What about the GI50 [4] of the same compound?
Answer: Its GI50 is 13 µM.

Question: What about the GI50 [5] of the same compound?
Answer: Its GI50 is 2.61 µM.

Question: What about the GI50 [6] of the same compound?
Answer: The GI50 was 12.1 µM.

Question: What about the GI50 [7] of the same compound?
Answer: Its GI50 is 11.9 µM.

Question: And the GI50 [8]?
Answer: The GI50 was 13.6 µM.

Question: What about the GI50 [9] of the same compound?
Answer: The GI50 was 16.7 µM.

Question: What about the GI50 [10] of the same compound?
Answer: Its GI50 is 10.2 µM.

Question: What about the GI50 [11] of the same compound?
Answer: The GI50 was 10.8 µM.

Question: And the GI50 [12]?
Answer: Its GI50 is 16.1 µM.

Question: And the GI50 [13]?
Answer: The GI50 was 10.8 µM.

Question: And the GI50 [14]?
Answer: Its GI50 is 2.01 µM.

Question: And the GI50 [15]?
Answer: Its GI50 is 13.2 µM.

Question: What about the GI50 [16] of the same compound?
Answer: The GI50 was 15 µM.

Question: And the GI50 [17]?
Answer: Its GI50 is 14.6 µM.

Question: What about the GI50 [18] of the same compound?
Answer: The GI50 was 10.2 µM.

Question: And the GI50 [19]?
Answer: Its GI50 is 13.2 µM.

Question: What about the GI50 [20] of the same compound?
Answer: The GI50 was 14.7 µM.

Question: What about the GI50 [21] of the same compound?
Answer: The GI50 was 20.1 µM.

Question: `C=C1CC[C@H]2[C@]3(C)C[C@@H](C=C(C)C)O[C@H]3CC[C@]2(C)[C@@H]1Cc1c(OC)oc(CO)c(C)c1=O` [Compound 17] was tested. Which GI50 [1] did it give?
Answer: The GI50 was 14.4 µM.

Question: And the GI50 [2]?
Answer: Its GI50 is 13.2 µM.

Question: And the GI50 [3]?
Answer: The GI50 was 15.5 µM.

Question: What about the GI50 [4] of the same compound?
Answer: The GI50 was 14 µM.

Question: What about the GI50 [5] of the same compound?
Answer: Its GI50 is 10.8 µM.

Question: And the GI50 [6]?
Answer: The GI50 was 11.8 µM.

Question: What about the GI50 [7] of the same compound?
Answer: The GI50 was 12.2 µM.

Question: What about the GI50 [8] of the same compound?
Answer: The GI50 was 12.1 µM.

Question: And the GI50 [9]?
Answer: The GI50 was 14 µM.

Question: And the GI50 [10]?
Answer: Its GI50 is 0.942 µM.

Question: And the GI50 [11]?
Answer: Its GI50 is 13 µM.

Question: And the GI50 [12]?
Answer: Its GI50 is 16.6 µM.

Question: What about the GI50 [13] of the same compound?
Answer: Its GI50 is 10.4 µM.

Question: What about the GI50 [14] of the same compound?
Answer: The GI50 was 10 µM.

Question: And the GI50 [15]?
Answer: Its GI50 is 13.9 µM.

Question: And the GI50 [16]?
Answer: The GI50 was 14.3 µM.

Question: What about the GI50 [17] of the same compound?
Answer: Its GI50 is 15.2 µM.

Question: What about the GI50 [18] of the same compound?
Answer: Its GI50 is 12.8 µM.

Question: And the GI50 [19]?
Answer: Its GI50 is 14.3 µM.

Question: And the GI50 [20]?
Answer: Its GI50 is 14.2 µM.

Question: What about the GI50 [21] of the same compound?
Answer: Its GI50 is 16.9 µM.
